Source: patent publication US11332459B2 (TEIJIN PHARMA LIMITED, priority 2017, dated 2022)
Counter-ions that a name gives are not always drawn.

Biological target: T1, human TRPC6 (Homo sapiens, UniProt Q9Y210)
T1 construct: expressed in transfected cells
T1 sequence (Q9Y210 1-931): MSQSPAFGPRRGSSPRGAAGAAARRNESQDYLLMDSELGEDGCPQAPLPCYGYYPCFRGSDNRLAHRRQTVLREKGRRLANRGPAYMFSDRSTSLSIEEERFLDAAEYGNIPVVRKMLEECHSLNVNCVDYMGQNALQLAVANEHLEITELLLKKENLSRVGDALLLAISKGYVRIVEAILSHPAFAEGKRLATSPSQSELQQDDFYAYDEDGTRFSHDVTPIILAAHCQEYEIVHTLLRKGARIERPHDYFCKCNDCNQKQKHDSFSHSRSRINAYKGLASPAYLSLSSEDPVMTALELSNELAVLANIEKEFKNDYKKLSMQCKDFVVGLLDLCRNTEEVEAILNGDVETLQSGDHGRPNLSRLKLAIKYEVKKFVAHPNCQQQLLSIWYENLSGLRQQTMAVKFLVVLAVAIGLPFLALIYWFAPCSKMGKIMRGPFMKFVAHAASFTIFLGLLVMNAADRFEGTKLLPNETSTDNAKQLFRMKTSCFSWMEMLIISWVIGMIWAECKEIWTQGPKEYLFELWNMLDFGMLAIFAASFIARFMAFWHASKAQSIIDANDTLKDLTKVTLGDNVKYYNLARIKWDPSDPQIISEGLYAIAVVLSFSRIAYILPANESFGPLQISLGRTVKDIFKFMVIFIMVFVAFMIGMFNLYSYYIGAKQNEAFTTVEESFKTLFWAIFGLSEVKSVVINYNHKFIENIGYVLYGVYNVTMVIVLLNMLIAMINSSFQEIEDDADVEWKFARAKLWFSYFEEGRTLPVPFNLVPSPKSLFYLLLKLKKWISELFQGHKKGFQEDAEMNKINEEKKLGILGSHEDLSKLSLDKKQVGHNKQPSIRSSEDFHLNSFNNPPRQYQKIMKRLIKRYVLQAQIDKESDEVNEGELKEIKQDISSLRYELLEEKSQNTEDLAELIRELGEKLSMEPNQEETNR
Assay: TRPC6 calcium flux assay (FLIPR, OAG-stimulated calcium influx)
Format: cell-based
Details: HEK293 cells stably transfected with human TRPC6, read-out: hTRPC6 Potency
In short: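 HEK293 cells stably expressing human TRPC6, loaded with calcium dye 90–120 min at RT, then given compound for 25 min before OAG (50 uM final, 0.5% DMSO) in HEPES buffer pH 7.2 with 2 mM CaCl2. Background-subtracted FLIPR peak over 180 s normalized to OAG vs buffer; IC50 from dose plot.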

IC50 [nM] | SMILES
0.256 | N#Cc1ccc(Cn2c(N3CC[C@H](F)[C@H](N)C3)nc3c(Cl)cc(Cl)cc32)nc1 [Example 59, 6-((2-((3R,4S)-3-amino-4-fluoropiperidin-1-yl)-4,6-dichloro-1H-benzo[d]imidazol-1-yl)methyl)nicotinonitrile]
3050 | N[C@@H]1CCCN(c2nc3ccccc3n2Cc2ccc(OC(F)(F)F)cc2)C1 [Example 376, (R)-1-(1-(4-(trifluoromethoxy)benzyl)-1H-benzo[d]imidazol-2-yl)piperidin-3-amine]
376 | N[C@@H]1CN(c2nc3cc(F)c(F)cc3n2Cc2ccc(F)cn2)CCC1(F)F [Example 307, (R)-1-(5,6-difluoro-1-((5-fluoropyridin-2-yl)methyl)-1H-benzo[d]imidazol-2-yl)-4,4-difluoropiperidin-3-amine]
420 | N[C@@H]1CN(c2nc3cc(F)cnc3n2Cc2ncc(Cl)cn2)CC[C@H]1F [Example 583]
579 | Cc1nc(-c2ccccc2)sc1Cn1c(N2CC[C@@H](F)[C@H](N)C2)nc2ccc(F)cc21 [Example 585, (3R,4R)-4-fluoro-1-(6-fluoro-1-((4-methyl-2-phenylthiazol-5-yl)methyl)-1H-benzo[d]imidazol-2-yl)piperidin-3-amine]
1430 | N[C@@H]1CN(c2nc3cc(C(F)(F)F)ccc3n2Cc2ncc(F)cn2)CC[C@@H]1F [Example 306, (3R,4S)-4-fluoro-1-(1-((5-fluoropyrimidin-2-yl)methyl)-5-(trifluoromethyl)-1H-benzo[d]imidazol-2-yl)piperidin-3-amine]
29.9 | NC(=O)c1cnc(Cn2c(N3CC[C@H](F)[C@H](N)C3)nc3ccc(C(F)(F)F)cc32)cn1 [Example 122, 5-((2-((3R,4S)-3-amino-4-fluoro-1-piperidinyl)-6-(trifluoromethyl)-1H-benzimidazol-1-yl)methyl)-2-pyrazinecarboxamide]
13.7 | C[C@@H](c1ccc(C#N)cn1)n1c(N2CC[C@@H]3OCCN[C@H]3C2)nc2cc(F)cc(F)c21 [Example 273, 6-((1S)-1-(5,7-difluoro-2-((4aS,8aS)-hexahydro-2H-pyrido[4,3-b][1,4]oxazin-6(5H)-yl)-1H-benzimidazol-1-yl)ethyl)-3-pyridinecarbonitrile]
1020 | N[C@@H]1CN(c2nc3cc(F)c(F)cc3n2Cc2cccc(OC(F)(F)F)c2)CC[C@H]1F [Example 364, (3R,4R)-1-(5,6-difluoro-1-(3-(trifluoromethoxy)benzyl)-1H-benzimidazol-2-yl)-4-fluoro-3-piperidinamine]
1.38 | N#Cc1ccc(Cn2c(N3CC[C@@H](F)[C@H](N)C3)nc3ccccc32)cc1 [Example 173, 4-((2-((3R,4R)-3-amino-4-fluoropiperidin-1-yl)-1H-benzo[d]imidazol-1-yl)methyl)benzonitrile]
> 3750 | CN(C(=O)Cn1c(N2CC[C@@H](F)[C@H](N)C2)nc2cc(F)c(F)cc21)C1CCS(=O)(=O)CC1 [Example 651, 2-(2-((3R,4R)-3-amino-4-fluoropiperidin-1-yl)-5,6-difluoro-1H-benzo[d]imidazol-1-yl)-N-(1,1-dioxidotetrahydro-2H-thiopyran-4-yl)-N-methylacetamide]
757 | NC(=O)C1CCCCN1C(=O)Cn1c(N2CC[C@@H](F)[C@H](N)C2)nc2cc(F)c(F)cc21 (stereo partly drawn) [Example 521]
87.4 | C[C@H](c1ccc(C#N)cc1)n1c(N2CCC[C@@H](N)C2)nc2ccccc21 [Example 398, 4-((R)-1-(2-((R)-3-aminopiperidin-1-yl)-1H-benzo[d]imidazol-1-yl)ethyl)benzonitrile]
4.02 | N#Cc1ccc2nc(N3CC[C@@H](F)[C@H](N)C3)n(Cc3ccc(F)cn3)c2c1 [Example 190, 2-((3R,4R)-3-amino-4-fluoropiperidin-1-yl)-1-((5-fluoropyridin-2-yl)methyl)-1H-benzo[d]imidazole-6-carbonitrile]
78.5 | N#Cc1ccc2c(c1)nc(N1CC[C@@H](F)[C@H](N)C1)n2Cc1cnc(C#N)cn1 [Example 250, 2-((3R,4R)-3-amino-4-fluoro-1-piperidinyl)-1-((5-cyano-2-pyrazinyl)methyl)-1H-benzimidazole-5-carbonitrile]
476 | CN[C@@H]1CN(c2nc3c(F)cc(F)cc3n2[C@H](C)c2ccc(C#N)cn2)CC[C@H]1F (single isomer, unassigned) [Example 438]
2740 | CN(CC(F)(F)F)C(=O)Cn1c(N2CCC(F)(F)[C@H](N)C2)nc2cc(F)ccc21 [Example 482, (R)-2-(2-(3-amino-4,4-difluoropiperidin-1-yl)-5-fluoro-1H-benzo[d]imidazol-1-yl)-N-methyl-N-(2,2,2-trifluoroethyl)acetamide]
4.42 | COc1cnc(Cn2c(N3CC[C@@H](F)[C@H](N)C3)nc3ccc(F)cc32)nc1 [Example 444, (3R,4R)-4-fluoro-1-(6-fluoro-1-((5-methoxypyrimidin-2-yl)methyl)-1H-benzo[d]imidazol-2-yl)piperidin-3-amine]
7.79 | CN[C@H]1CCCN(c2nc3ccccc3n2Cc2ccc(C#N)cn2)C1 [Example 116, 6-((2-((3S)-3-(methylamino)-1-piperidinyl)-1H-benzimidazol-1-yl)methyl)-3-pyridinecarbonitrile]
1160 | COc1ccc2c(c1)nc(N1CC[C@@H](F)[C@H](N)C1)n2CC(=O)N(C)CC(F)(F)F [Example 449, 2-(2-((3R,4R)-3-amino-4-fluoropiperidin-1-yl)-5-methoxy-1H-benzo[d]imidazol-1-yl)-N-methyl-N-(2,2,2-trifluoroethyl)acetamide]
2.68 | COc1cccc2c1nc(N1CC[C@@H](F)[C@H](N)C1)n2Cc1ccc(C#N)cc1 [Example 411, 4-((2-((3R,4R)-3-amino-4-fluoropiperidin-1-yl)-4-methoxy-1H-benzo[d]imidazol-1-yl)methyl)benzonitrile]
> 3750 | N#Cc1ccc2c(c1)nc(N1CC[C@H](F)[C@H](N)C1)n2CC(=O)N1CCC1 [Example 288, 2-((3R,4S)-3-amino-4-fluoro-1-piperidinyl)-1-(2-(1-azetidinyl)-2-oxoethyl)-1H-benzimidazole-5-carbonitrile]
2400 | CN(CC(F)(F)F)C(=O)Cn1c(N2CC[C@@H](O)[C@H](N)C2)nc2ccc(F)cc21 [Example 481, 2-(2-((3R,4R)-3-amino-4-hydroxypiperidin-1-yl)-6-fluoro-1H-benzo[d]imidazol-1-yl)-N-methyl-N-(2,2,2-trifluoroethyl)acetamide]
133 | N[C@@H]1CN(c2nc3cc(F)c(F)cc3n2Cc2ccccc2Cl)CC[C@H]1F [Example 354, (3R,4R)-1-(1-(2-chlorobenzyl)-5,6-difluoro-1H-benzimidazol-2-yl)-4-fluoro-3-piperidinamine]
> 50000 | C[C@H](c1ccc(C#N)cn1)n1c(N2CC[C@@H]3OCCN[C@H]3C2)nc2c(F)cc(F)cc21 [Example 268, 6-((1R)-1-(4,6-difluoro-2-((4aS,8aS)-hexahydro-2H-pyrido[4,3-b][1,4]oxazin-6(5H)-yl)-1H-benzimidazol-1-yl)ethyl)-3-pyridinecarbonitrile]
42.2 | N[C@@H]1CN(c2nc3cc(F)cc(F)c3n2Cc2ccc(Cl)cn2)CCC1(F)F [Example 229, (R)-1-(1-((5-chloropyridin-2-yl)methyl)-5,7-difluoro-1H-benzo[d]imidazol-2-yl)-4,4-difluoropiperidin-3-amine hydrochloride]
5.38 | CC1CCN1C(=O)Cn1c(N2CC[C@@H](F)[C@H](N)C2)nc2cc(F)c(F)cc21 (stereo partly drawn) [Example 600, 2-(2-((3R,4R)-3-amino-4-fluoropiperidin-1-yl)-5,6-difluoro-1H-benzo[d]imidazol-1-yl)-1-(2-methylazetidin-1-yl)ethanone]
1490 | COc1ccnc(Cn2c(N3CC[C@@H](F)[C@H](N)C3)nc3cc(F)ccc32)c1 [Example 524, (3R,4R)-4-fluoro-1-(5-fluoro-1-((4-methoxypyridin-2-yl)methyl)-1H-benzo[d]imidazol-2-yl)piperidin-3-amine]
93.2 | Cc1nnc(Cn2c(N3CC[C@@H](F)[C@H](N)C3)nc3cc(F)c(F)cc32)o1 [Example 571, (3R,4R)-1-(5,6-difluoro-1-((5-methyl-1,3,4-oxadiazol-2-yl)methyl)-1H-benzo[d]imidazol-2-yl)-4-fluoropiperidin-3-amine]
1660 | N[C@@H]1CN(c2nc3ccc(F)cc3n2CC(=O)N(CC(F)(F)F)[C@@H]2CCOC2)CC[C@H]1F [Example 672]
